Values quoted from earlier work, collected in patent US20230404937A1, “NOVEL DISINTEGRATION ORAL FILM FORMULATION WITH A CONTROLLED OR SUSTAINED ACTIVE RELEASE” (INTELGENX CORP., priority 2022, published 2023).

Conditions: when orally ingested; first metabolized in the liver

SMILES: CCCCCc1cc(O)c2c(c1)OC(C)(C)[C@@H]1CCC(C)=C[C@@H]21 [THC, tetrahydrocannabinol]
- oral bioavailability: 5%
